# Assays:
# [1] = molecular target: FABP3 (Homo sapiens (Human), UniProt P05413); test: DAUDA, ANS or NBD-stearate fluorescence displacement binding assay, FABP3; conditions: average ± S.E. of at least three independent experiments
# [2] = molecular target: FABP7 (Homo sapiens (Human), UniProt O15540); test: DAUDA, ANS or NBD-stearate fluorescence displacement binding assay, FABP7; conditions: average ± S.E. of at least three independent experiments
# [3] = molecular target: T1, FABP5 (Homo sapiens (Human), UniProt Q01469); test: DAUDA, ANS or NBD-stearate fluorescence displacement binding assay, FABP5; conditions: average ± S.E. of at least three independent experiments
# Protocol: FABP5 (30 μg), NBD-stearate (1 μM), and a competitor test compound were incubated in 30 mM Tris-HCl, 100 mM NaCl buffer (pH 7.6). […] The initial assay was run with buffer (30 mM Tris-HCl buffer), negative controls (buffer and NBD-stearate), positive controls (buffer, NBD-stearate, FABP5), and experimental wells with a variable test compound added (arachidonic acid or one of the 48 test compounds) at 10 μM. […] GraphPad Prism was also used to determine the Ki of these select competitors from the equation Ki=IC50/(1+([NBD-stearate]/Kd)). The Kd of NBD-stearate for FABP5 had been determined previously through incubating FABP5 with increasing concentrations of NBD-stearate.
# Determination of Ki was derived from DAUDA or NBD-stearate displacement assays (see Table 1).
# [4] = molecular target: T1, FABP5; conditions: read-out: Kd of NBD-stearate for FABP5; cited from earlier work
# [5] = tested on: formalin induced pain; conditions: formalin induced mouse models; cited from earlier work
# [6] = compared with morphine; cited from earlier work
# Chain of FABP7 (O15540 whole entry, species assumed): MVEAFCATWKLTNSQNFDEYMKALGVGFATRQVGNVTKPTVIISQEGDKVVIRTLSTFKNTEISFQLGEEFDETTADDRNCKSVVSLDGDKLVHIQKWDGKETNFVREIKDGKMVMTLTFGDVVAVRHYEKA
# Chain of FABP3 (P05413 whole entry, species assumed): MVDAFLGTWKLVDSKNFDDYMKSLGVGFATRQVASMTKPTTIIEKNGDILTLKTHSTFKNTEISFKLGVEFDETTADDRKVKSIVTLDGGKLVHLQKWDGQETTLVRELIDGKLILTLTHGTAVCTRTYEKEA
# T1 sequence (Q01469 whole entry, species assumed): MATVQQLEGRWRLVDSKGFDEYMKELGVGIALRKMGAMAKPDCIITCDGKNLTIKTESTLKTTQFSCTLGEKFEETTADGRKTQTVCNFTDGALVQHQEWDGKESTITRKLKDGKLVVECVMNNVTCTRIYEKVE
Compound,Ki [1],Ki [2],Ki [3],Kd [4],antinociceptive effect in early and late stage pain [5],antinociceptive properties [6]
"COc1ccccc1[C@H]1[C@H](C(=O)O)[C@H](c2ccccc2OC)[C@H]1C(=O)OCC1c2ccccc2-c2ccccc21 [Compound 4j, 9-Fluorenylmethyl α-2,4-di(2-methoxylphenyl)cyclobutane-1,3-dicarboxylate]",> 10000 nM,> 10000 nM,,,,
"O=C(O)[C@H]1[C@H](c2ccccc2)[C@H](C(=O)OCC2c3ccccc3-c3ccccc32)[C@H]1c1ccccc1 [Compound 3q, 9-Fluorenylmethyl α-2,4-diphenylcyclobutane-1,3-dicarboxylate]",> 10000 nM,2700 ± 620 nM,2560 ± 160 nM,,,
O=C(O)[C@H]1[C@H](c2ccccc2)[C@H](C(=O)Oc2ccc(-c3ccccc3)cc2)[C@H]1c1ccccc1 [Compound 3i],3930 ± 160 nM,2270 ± 30 nM,2520 ± 360 nM,,,
"O=C(O)[C@H]1[C@H](c2ccccc2)[C@H](C(=O)Oc2ccccc2-c2ccccc2O)[C@H]1c1ccccc1 [Compound 3j, 2′-HO-biphenyl-2-yl α-2,4-diphenylcyclobutane-1,3-dicarboxylate]",3520 ± 530 nM,540 ± 180 nM,1590 ± 430 nM,,,
O=C(O)[C@H]1[C@H](c2ccccc2)[C@H](C(=O)Oc2ccccc2I)[C@H]1c1ccccc1 [Compound 3e],1180 ± 100 nM,940 ± 340 nM,1340 ± 210 nM,,,
"O=C(O)[C@H]1[C@@H](c2ccccc2)[C@H](C(=O)OCc2ccccc2)[C@@H]1c1ccccc1 [Compound 3a, Benzyl α-2,4-diphenylcyclobutane-1,3-dicarboxylate]",> 10000 nM,,,,,
CCOCCOCCOCCn1cc(-c2cccc(OC(=O)[C@H]3[C@@H](c4ccccc4)[C@H](C(=O)O)[C@@H]3c3ccccc3)c2)nn1 [Compound 3t],> 10000 nM,1060 ± 70 nM,> 10000 nM,,,
"O=C(O)C1C(c2ccccc2Br)C(C(=O)O[C@@H]2CCCC[C@H]2c2ccccc2)C1c1ccccc1Br (stereo partly drawn) [Compound 4h, (1R,2S)-2-Phenylcyclohexyl α-2,4-di(2-bromophenyl)cyclobutane-1,3-dicarboxylate]",> 10000 nM,> 10000 nM,,,,
"C#Cc1cccc2c(OC(=O)[C@H]3[C@@H](c4ccccc4)[C@H](C(=O)O)[C@@H]3c3ccccc3)cccc12 [Compound 3p, 5-Ethynylnaphth-1-yl α-2,4-diphenylcyclobutane-1,3-dicarboxylate]",4940 ± 310 nM,1030 ± 220 nM,3920 ± 750 nM,,,
"O=C(O)[C@H]1[C@H](c2ccccc2)[C@H](C(=O)OC2Cc3ccccc3C2)[C@H]1c1ccccc1 [Compound 3m, Indan-2-yl α-2,4-diphenylcyclobutane-1,3-dicarboxylate]",> 10000 nM,2410 ± 90 nM,,,,
O=C(O)[C@H]1[C@H](c2ccccc2)[C@H](C(=O)Oc2ccc(Cl)c(Cl)c2Cl)[C@H]1c1ccccc1 [Compound 3k],2980 ± 850 nM,540 ± 20 nM,,,,
"O=C(O)[C@H]1[C@H](c2c(Cl)cccc2Cl)[C@H](C(=O)OC2CCCC[C@H]2c2ccccc2)[C@H]1c1c(Cl)cccc1Cl (stereo partly drawn) [Compound 4g, (1R,2S)-2-Phenylcyclohexyl α-2,4-di(2,6-dichlorophenyl)cyclobutane-1,3-dicarboxylate]",> 10000 nM,,,,,
CCCCCCC(CCCCCCCCCCC(=O)O)N(C)c1ccc([N+](=O)[O-])c2nonc12 (centres unmarked) [NBD-stearate],,,,160 nM,,
"COc1ccc(COC(=O)[C@H]2[C@@H](c3ccccc3)[C@H](C(=O)O)[C@@H]2c2ccccc2)cc1 [Compound 3b, 4-Methoxybenzyl α-2,4-diphenylcyclobutane-1,3-dicarboxylate]",> 10000 nM,1140 ± 60 nM,2150 ± 100 nM,,,
"COc1cc([C@H]2[C@H](C(=O)O)[C@H](c3ccc(O)c(OC)c3)[C@H]2C(=O)Oc2cccc3ccccc23)ccc1O [Compound 4a, 1-Naphthyl α-2,4-di(3-methoxy-4-hydroxy)cyclobutane-1,3-dicarboxylate]",1060 ± 190 nM,2120 ± 190 nM,> 10000 nM,,,
"O=C(O)[C@H]1[C@H](c2ccccc2Cl)[C@H](C(=O)OC2CCCC[C@H]2c2ccccc2)[C@H]1c1ccccc1Cl (stereo partly drawn) [Compound 4f, (1R,2S)-2-Phenylcyclohexyl α-2,4-di(2-chlorophenyl)cyclobutane-1,3-dicarboxyliate]",> 10000 nM,> 10000 nM,,,,
"O=C(O)C1C(c2ccccc2)C(C(=O)O)C1c1ccccc1 (stereo not drawn) [α-truxillic acid, α-2,4-diphenylcyclobutene-1,3-dicarboxylic Acid]",,,,,best antinociceptive agent in both early and late stage pain,
"COc1ccccc1C1C(C(=O)O)C(c2ccccc2OC)C1C(=O)O[C@@H]1CCCC[C@H]1c1ccccc1 (stereo partly drawn) [Compound 4e, (1R,2S)-2-Phenylcyclohexyl α-2,4-di(2-methoxylphenyl)cyclobutane-1,3-dicarboxylate]",400 ± 80 nM,400 ± 30 nM,,,,
"O=C(O)[C@H]1[C@@H](c2ccccc2)[C@H](C(=O)OCC(F)(F)F)[C@@H]1c1ccccc1 [Compound 3r, 2,2,2-Trifluoroethyl α-2,4-diphenylcyclobutane-1,3-dicarboxylate]",> 10000 nM,,> 10000 nM,,,
"O=C(O)C1C(c2ccccc2)C(C(=O)OC2CCCCC2)C1c1ccccc1 (stereo not drawn) [Compound 3s, Cyclohexyl α-2,4-diphenylcyclobutane-1,3-dicarboxylate]",> 10000 nM,500 ± 110 nM,,,,
"O=C(O)[C@H]1[C@H](c2ccccc2)[C@H](C(=O)Oc2cccc(-c3ccccc3)c2)[C@H]1c1ccccc1 [Compound 3h, Biphenyl-3-yl α-2,4-Diphenylcyclobutane-1,3-dicarboxylate]",9750 ± 790 nM,740 ± 170 nM,,,,
"O=C(O)[C@H]1[C@H](c2ccccc2)[C@H](C(=O)OCc2ccc(Br)cc2)[C@H]1c1ccccc1 [Compound 3d, 4-Bromobenzyl α-2,4-diphenylcyclobutane-1,3-dicarboxylate]",> 10000 nM,1250 ± 30 nM,1580 ± 160 nM,,,
"O=C(O)[C@H]1[C@H](c2ccccc2)[C@H](C(=O)OCc2ccc(F)cc2)[C@H]1c1ccccc1 [Compound 3c, 4-Fluorobenzyl α-2,4-diphenylcyclobutane-1,3-dicarboxylate]",> 10000 nM,1650 ± 210 nM,2420 ± 180 nM,,,
COc1cc([C@H]2[C@H](C(=O)O[C@@H]3C[C@@H]4[C@@H](CN(C)C[C@@H]4C)[C@@H]3C)[C@H](c3ccc(O)c(OC)c3)[C@H]2C(=O)O[C@@H]2C[C@@H]3[C@@H](CN(C)C[C@@H]3C)[C@@H]2C)ccc1O [(−)-incarvillateine],,,,,,antinociceptive properties on the same level as morphine
O=C(O)[C@H]1[C@@H](c2ccc(O)cc2)[C@H](C(=O)Oc2cccc3ccccc23)[C@@H]1c1ccc(O)cc1 [Compound 4d],,,> 10000 nM,,,
"O=C(O)[C@H]1[C@H](c2ccccc2Cl)[C@H](C(=O)OCC2c3ccccc3-c3ccccc32)[C@H]1c1ccccc1Cl [Compound 4k, 9-Fluorenylmethyl α-2,4-di(2-chlorophenyl)cyclobutane-1,3-dicarboxylate]",> 10000 nM,3540 ± 770 nM,,,,

# Reference: patent US10968163B2, “Alpha-truxillic acid derivatives and pharmaceutical compositions thereof” (The Research Foundation for the State University of New York, priority 2016, dated 2021)
